≈ marks a conversion by molar mass, not a printed value.
Tests used:
Test in all cases: Bacterial growth minimal inhibitory concentration, microdilution in cation-adjusted Mueller-Hinton Broth (CLSI M7-A7)
Assay type in all cases: cell-based
E. coli ATCC25922 = conditions: quinolone-sensitive strain; for MIC: Escherichia coli, ATCC25922, read-out: MIC for E. coli ATCC25922
Description: (§1) Minimal Inhibitory Concentrations (MICs; mg/L) were determined in cation-adjusted Mueller-Hinton Broth by a microdilution method following the description given in “Methods for Dilution Antimicrobial Susceptibility Tests for Bacteria that Grow Aerobically”, Approved standard, 7th ed., Clinical and Laboratory Standards Institute (CLSI) Document M7-A7, Wayne, Pa., USA (2006).
(§2) All Example compounds were tested against several Gram-positive and Gram-negative bacteria. […] K pneumoniae A-651 is a multiply-resistant (in particular quinolone-resistant) strain, while E. coli ATCC25922 and P. aeruginosa ATCC27853 are quinolone-sensitive strains.

K. Pneumoniae A-651 = conditions: multiply-resistant (in particular quinolone-resistant) strain; for MIC: Klebsiella pneumoniae, read-out: MIC for K. Pneumoniae A-651
Description: as §1, §2

P. aeruginosa ATCC27853 = conditions: quinolone-sensitive strain; for MIC: Pseudomonas aeruginosa, ATCC27853, read-out: MIC for P. aeruginosa ATCC27853
Description: as §1, §2

SMILES	MIC (E. coli ATCC25922)	MIC (K. Pneumoniae A-651)	MIC (P. aeruginosa ATCC27853)	MIC for E. coli ATCC25922 (E. coli ATCC25922)	MIC for K. Pneumoniae A-651 (K. Pneumoniae A-651)	MIC for P. aeruginosa ATCC27853 (P. aeruginosa ATCC27853)
C[C@@](CCc1nc2ccc(C#CC#C[C@@H]3C[C@@H](O)[C@@H](O)C3)cc2s1)(C(=O)NO)S(C)(=O)=O [Example 13, (R)-4-(6-(((1s,3R,4S)-3,4-dihydroxycyclopentyl)buta-1,3-diyn-1-yl)benzo[d]thiazol-2-yl)-N-hydroxy-2-methyl-2-(methylsulfonyl)butanamide]	–	–	–	0.25 µg/mL	0.5 µg/mL	1 µg/mL
C[C@@](CCc1nc2ccc(C#CC#C[C@H]3C[C@@H]3CO)cc2s1)(C(=O)NO)S(C)(=O)=O [Example 7, (R)-N-hydroxy-4-(6-(((1S,2S)-2-(hydroxymethyl)cyclopropyl)buta-1,3-diyn-1-yl)benzo[d]thiazol-2-yl)-2-methyl-2-(methylsulfonyl)butanamide]	≤ 0.063 µg/mL	0.125 µg/mL (≈ 0.28 µM)	0.5 µg/mL (≈ 1.12 µM)	–	–	–
C[C@@](CCc1nc2ccc(C#CC#CC3(O)COC3)cc2s1)(C(=O)NO)S(C)(=O)=O (single isomer, unassigned) [Example 1]	0.25 µg/mL (≈ 0.557 µM)	0.25 µg/mL (≈ 0.557 µM)	1 µg/mL (≈ 2.23 µM)	–	–	–
CC(C)(N)C#CC#Cc1ccc2nc(CC[C@](C)(C(=O)NO)S(C)(=O)=O)sc2c1 [Example 6, (R)-4-(6-(5-amino-5-methylhexa-1,3-diyn-1-yl)benzo[d]thiazol-2-yl)-N-hydroxy-2-methyl-2-(methylsulfonyl)butanamide]	0.25 µg/mL (≈ 0.577 µM)	1 µg/mL (≈ 2.31 µM)	1 µg/mL (≈ 2.31 µM)	–	–	–

Second part, the compound after the results:

MIC (E. coli ATCC25922)	MIC (K. Pneumoniae A-651)	MIC (P. aeruginosa ATCC27853)	MIC for E. coli ATCC25922 (E. coli ATCC25922)	MIC for K. Pneumoniae A-651 (K. Pneumoniae A-651)	MIC for P. aeruginosa ATCC27853 (P. aeruginosa ATCC27853)	SMILES
0.5 µg/mL (≈ 0.966 µM)	1 µg/mL (≈ 1.93 µM)	2 µg/mL (≈ 3.86 µM)	–	–	–	C[C@@](CCc1nc2ccc(C#CC#CC3CCN(C(=O)CO)CC3)cc2s1)(C(=O)NO)S(C)(=O)=O [Example 22, (R)-N-hydroxy-4-(6-((1-(2-hydroxyacetyl)piperidin-4-yl)buta-1,3-diyn-1-yl)benzo[d]thiazol-2-yl)-2-methyl-2-(methylsulfonyl)butanamide]
–	–	–	1 µg/mL	2 µg/mL	2 µg/mL	C[C@@](CCc1nc2ccc(C#CC#C[C@]3(O)C[C@@H](CO)C3)cc2s1)(C(=O)NO)S(C)(=O)=O (relative stereo) [Example 21, (R)-N-hydroxy-4-(6-((cis-1-hydroxy-3-(hydroxymethyl)cyclobutyl)buta-1,3-diyn-1-yl)benzo[d]thiazol-2-yl)-2-methyl-2-(methylsulfonyl)butanamide]
0.063 µg/mL (≈ 0.136 µM)	0.125 µg/mL (≈ 0.269 µM)	0.25 µg/mL (≈ 0.538 µM)	–	–	–	C[C@@](CCc1nc2ccc(C#CC#C[C@H]3C[C@]3(F)CO)cc2s1)(C(=O)NO)S(C)(=O)=O [Example 27, (R)-4-(6-(((1R,2R)-2-fluoro-2-(hydroxymethyl)cyclopropyl)buta-1,3-diyn-1-yl)benzo[d]thiazol-2-yl)-N-hydroxy-2-methyl-2-(methylsulfonyl)butanamide]

Source: patent US20170355687A1, “ANTIBACTERIAL BENZOTHIAZOLE DERIVATIVES” (Actelion Pharmaceuticals Ltd, priority 2014, published 2017)
